Legend:
[1] = tested on: human neuroblastoma (SH-SY5Y); experiment: Apoptosis suppressing action caused by amyloid β in human neuroblastoma (Hoechst 33342 staining); assay type: cell-based
Description: The proportion of apoptotic cells in human neuroblastoma (SH-SY5Y; obtained from ATCC) in the presence of an autophagy activator was measured by the following test method to evaluate the apoptosis suppressing action of the autophagy activator.
In the following examples and comparative examples, tests were performed by adding amyloid β, which is known to induce cell death called apoptosis of nerve cells due to a decrease in autophagy, to each medium.
SH-SY5Y cells were prepared at a seeding density of 50000 cells/cm^2 and cultured for 24 hours in D-MEM medium/Ham's F-12 medium (manufactured by Sigma-Aldrich) to which 10% fetal bovine serum (manufactured by MP Biomedicals) was added. […]
Thereafter, an aqueous solution of 10 μM Hoechst 33342 (manufactured by Sigma-Aldrich) was added to each SH-SY5Y cell from which the medium was removed, and the cells were allowed to stand at room temperature (25° C.) for 10 minutes. After removing the solution, each SH-SY5Y cell was washed with phosphate buffer (PBS, manufactured by FUJIFILM Wako Pure Chemical Corporation), and with a fluorescence microscope, the number of cells showing strong apoptosis-like Hoechst fluorescence due to chromatin aggregation (Hoechst (+) cells) was counted. […] For each example, relative values were calculated when the proportion of apoptotic cells in Reference Example 4 was set to 1.00, and the results are shown in Table 7.

Beclin 1 gene = Beclin 1 gene expression promoting effect in human senescent fibroblasts (quantitative real-time PCR); assay type: cell-based
Description: Senescent fibroblasts were prepared by the following procedure.
Normal human fibroblasts (NB1RGB, RIKEN BRC Cell Bank) were cultured until confluent in D-MEM medium (manufactured by Sigma-Aldrich) to which 10% fetal bovine serum (manufactured by MP Biomedicals) was added. Thereafter, the cells were treated with 250 μM aqueous hydrogen peroxide for 2 hours, and cultured for 24 hours in D-MEM medium to which fresh 10% fetal bovine serum was added. The treatment with aqueous hydrogen peroxide and the cell culture operation were repeated three times, and the obtained fibroblasts were used as senescent fibroblasts.
The prepared senescent fibroblasts were prepared at a seeding density of 10000 cells/cm^2 and cultured for 24 hours in D-MEM medium (manufactured by Sigma-Aldrich) to which 10% fetal bovine serum (manufactured by MP Biomedicals) was added. […]
Then, using Nucleospin (registered trademark) RNA kit (manufactured by Takara Bio Inc.), RNA was extracted from senescent fibroblasts or normal human fibroblasts in each example, and cDNA was synthesized from the obtained RNA. Next, using this cDNA as a template, by quantitative real-time PCR, the expression level of each gene was quantified using primers (manufactured by Takara Bio Inc.) specific to the LC3 gene, ATG5 gene, and Beclin 1 gene, respectively. […]

**Q.** Which “proportion of apoptotic cells, in words” value ([1]; SH-SY5Y cells with amyloid β, compared to Comparative Example 7 (purified water and amyloid β)) does the source give for `O[C@H]1[C@H](O)[C@@H](O)[C@H](O)[C@@H](O)[C@H]1O` [Comparative Example 2, myo-inositol] here?
**A.** Its value is “almost the same”.

**Q.** What about the “Proportion of apoptotic cells” value ([1]; SH-SY5Y cells, 30 μM amyloid β present, 48 hours, 10^−3% (V/V) inositol or inositol derivative A, with the vitamin derivative of the example where added, relative value, Reference Example 4 (purified water, no amyloid β) = 1.00) of the same compound?
**A.** Its value is 3.98.

**Q.** What about the “Relative gene expression level Beclin 1” value (Beclin 1 gene; 24 hours, 10^−3% (V/V) inositol or inositol derivative A, with the vitamin derivative of the example where added, GAPDH-standardized, Comparative Example 1 (purified water) = 1.00) of the same compound?
**A.** Its value is 1.30.

**Q.** What about the “expression level of the Beclin 1 gene, in words” value (Beclin 1 gene; compared to Comparative Example 1 (purified water only)) of the same compound?
**A.** Its value is “more increased”.

— patent US20230364119A1, “AUTOPHAGY ACTIVATOR” (Resonac Corporation, priority 2020, published 2023)
